Assay results as given in patent US20070249588A1 (priority 2003, published 2007).
pKd: −log10 of the molar value.

Molecular target: α7 nAChR subtype (Rattus norvegicus, UniProt Q05941)
Assay type: binding

α7 nAChR subtype, sequence (Q05941 23-502 limits assumed): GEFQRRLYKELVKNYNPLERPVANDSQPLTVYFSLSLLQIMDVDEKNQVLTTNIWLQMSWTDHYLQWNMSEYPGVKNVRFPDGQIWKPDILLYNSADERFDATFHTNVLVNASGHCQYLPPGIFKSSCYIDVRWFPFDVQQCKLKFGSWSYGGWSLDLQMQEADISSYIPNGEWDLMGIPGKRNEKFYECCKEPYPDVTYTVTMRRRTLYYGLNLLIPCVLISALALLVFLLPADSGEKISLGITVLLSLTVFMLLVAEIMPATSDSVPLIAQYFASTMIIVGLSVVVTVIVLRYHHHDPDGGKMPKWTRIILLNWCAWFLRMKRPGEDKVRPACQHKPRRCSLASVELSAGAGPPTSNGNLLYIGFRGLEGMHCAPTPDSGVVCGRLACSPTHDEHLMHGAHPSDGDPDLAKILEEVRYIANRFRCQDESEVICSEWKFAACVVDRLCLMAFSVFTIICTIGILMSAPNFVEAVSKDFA

Question: With ^125I-α-Bungarotoxin [^125I-α-BTX] as the substance, how does the pKd read?
Answer: The pKd was 8.78.
